In ChEMBL document CHEMBL1201862, “PubChem BioAssay data set” (2004):
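Method: 48-hour compound exposure of cells in 96-well plates, five concentrations, linear interpolation of endpoints. The concentration for 50% growth inhibition is given as GI50.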 The source made the active and inactive calls. No stated cut-off is given here; in the data, active = GI50 up to about 1.1 µM and inactive = higher.

Legend:
Assay in all cases: NCI-60 cell line screen, 48 h
SK-MEL-2 = test system: SK-MEL-2
LXFL 529 = test system: LXFL 529
CCRF-CEM = test system: CCRF-CEM
KM12 = test system: KM12
HCC 2998 = test system: HCC 2998
HOP-62 = test system: HOP-62
MOLT-4 = test system: MOLT-4
UACC-62 = test system: UACC-62
SF-295 = test system: SF-295
EKVX = test system: EKVX
SK-MEL-28 = test system: SK-MEL-28
HCT-116 = test system: HCT-116
RPMI-8226 = test system: RPMI-8226
SK-MEL-5 = test system: SK-MEL-5
RXF 393 = test system: RXF 393
IGROV-1 = test system: IGROV-1
M19-MEL = test system: M19-MEL
SR = test system: SR
HOP-92 = test system: HOP-92
HT-29 = test system: HT-29
DLD-1 = test system: DLD-1
ACHN = test system: ACHN
UACC-257 = test system: UACC-257
HCT-15 = test system: HCT-15
DMS-273 = test system: DMS-273
786-0 = test system: 786-0
A549 = test system: A549
OVCAR-8 = test system: OVCAR-8
CAKI-1 = test system: CAKI-1
SF-268 = test system: SF-268
HL-60 = test system: HL-60
OVCAR-3 = test system: OVCAR-3
NCI-H522 = test system: NCI-H522
COLO 205 = test system: COLO 205
TK-10 = test system: TK-10
M14 = test system: M14
SK-OV-3 = test system: SK-OV-3
SW-620 = test system: SW-620
OVCAR-4 = test system: OVCAR-4
LOX IMVI = test system: LOX IMVI
SF-539 = test system: SF-539
Malme-3M = test system: Malme-3M
DMS-114 = test system: DMS-114
SNB-75 = test system: SNB-75
XF498 = test system: XF498
NCI-H460 = test system: NCI-H460
SN12C = test system: SN12C

SMILES: Cn1ccc2c(C(=O)c3ccccc3)cccc2c1=O
- GI50 (SK-MEL-2): 57.7 µM (inactive)
- GI50 (LXFL 529): 67.9 µM (inactive)
- GI50 (CCRF-CEM): 32.7 µM (inactive)
- GI50 (KM12): 42.9 µM (inactive)
- GI50 (HCC 2998): 89.5 µM (inactive)
- GI50 (HOP-62): 31 µM (inactive)
- GI50 (MOLT-4): 38 µM (inactive)
- GI50 (UACC-62): 31.6 µM (inactive)
- GI50 (SF-295): 20.7 µM (inactive)
- GI50 (EKVX): > 100 µM (inactive)
- GI50 (SK-MEL-28): 60.5 µM (inactive)
- GI50 (HCT-116): 36.7 µM (inactive)
- GI50 (RPMI-8226): 33.2 µM (inactive)
- GI50 (SK-MEL-5): 28.8 µM (inactive)
- GI50 (RXF 393): 47.5 µM (inactive)
- GI50 (IGROV-1): > 100 µM (inactive)
- GI50 (M19-MEL): 74 µM (inactive)
- GI50 (SR): 56.1 µM (inactive)
- GI50 (HOP-92): 49.2 µM (inactive)
- GI50 (HT-29): 44.2 µM (inactive)
- GI50 (DLD-1): 44.6 µM (inactive)
- GI50 (ACHN): 85.9 µM (inactive)
- GI50 (UACC-257): > 100 µM (inactive)
- GI50 (HCT-15): 25.8 µM
- GI50 (DMS-273): 34.1 µM (inactive)
- GI50 (786-0): 39.3 µM (inactive)
- GI50 (A549): 57.4 µM (inactive)
- GI50 (OVCAR-8): 56 µM (inactive)
- GI50 (CAKI-1): 68.2 µM (inactive)
- GI50 (SF-268): 97.7 µM (inactive)
- GI50 (HL-60): 24.9 µM (inactive)
- GI50 (OVCAR-3): 36.8 µM (inactive)
- GI50 (NCI-H522): 21.3 µM (inactive)
- GI50 (COLO 205): 44.7 µM (inactive)
- GI50 (TK-10): > 100 µM (inactive)
- GI50 (M14): 36.1 µM (inactive)
- GI50 (SK-OV-3): 70.8 µM (inactive)
- GI50 (SW-620): 37.9 µM (inactive)
- GI50 (OVCAR-4): 95.5 µM (inactive)
- GI50 (LOX IMVI): 54.3 µM (inactive)
- GI50 (SF-539): 29.6 µM (inactive)
- GI50 (Malme-3M): 45.4 µM (inactive)
- GI50 (DMS-114): 38.5 µM (inactive)
- GI50 (SNB-75): 23.4 µM (inactive)
- GI50 (XF498): 47.1 µM (inactive)
- GI50 (NCI-H460): 39.8 µM (inactive)
- GI50 (SN12C): 59.2 µM (inactive)
